{"source": "patent US20260137711A1", "about": "“COMBINATION THERAPY FOR CANCER” (NATIONAL UNIVERSITY OF IRELAND, GALWAY, priority 2022, published 2026)", "assay_type_in_all_cases": "cell-based, human", "key": {"MCF10A cells [1]": {"system": "MCF10A cells", "assay": "Flow cytometry of cell cycle distribution and DNA synthesis (EdU/DAPI)", "procedure": "(c) A typical profile obtained by flow cytometry of MCF10A cells labelled with EdU and DAPI that indicates the gating applied in order to determine the percentage of cells with sub-G1 DNA content (sub-G1), G1 cells (G1), replicating early-mid S phase cells (Early-Mid S/EdU+), replicating mid-late S phase cells (Mid-Late S/EdU+), cells with S phase DNA content but not replicating (2n<& <4n/EdU−), and cells either in G2 or mitosis (G2/M).(d-f) MCF10A cells were mock treated or treated with 10 μM XL413, in the presence or absence of increasing concentrations of the CDK8 inhibitor BI-1347, for 24 hours. (d) Cells were labelled with EdU for last 30 minutes and DNA synthesis, DNA content and cell cycle distribution were assessed by flow cytometry and analysed using the gating strategy described in above (FIG. 2c). (e) Distribution of cells in the cell cycle. (f) Fluorescence intensity, proportional to EdU incorporation, in individual S phase cells. Long and short horizontal black lines indicate the median and the interquartile range, respectively, extending from the 25th to the 75th percentile for ˜3,810 cells for each condition. Data is from a single experiment.\nFIG. 3: CDK8 activity is required for efficient DNA synthesis under conditions of limited CDC7 kinase activity (a-c) MCF10A cells were mock treated or treated with 31 nM BI-1347, in the presence or absence of increasing concentrations of the CDC7 inhibitors, XL413 (a-c) and TAK-931 (d-f), for 24 hours. (a and d) Cells were labelled with EdU for last 30 minutes and DNA synthesis, DNA content and cell cycle distribution were assessed by flow cytometry and analysed using the gating strategy described in FIG. 2c.c (b and e) distribution of cells in the cell cycle. (c and f) Fluorescence intensity, proportional to EdU incorporation, in individual S phase cells. Long and short horizontal black lines indicate the median and the interquartile range, respectively, extending from the 25th to the 75th percentile for ˜4,190 cells for each condition. Data is from a single experiment.\nTo analyse the cell cycle and DNA synthesis, nascent DNA was labelled by incubating cells with 10 μM EdU for either 20 or 30 minutes prior to harvest, washing with PBS, and then by resuspension in PBS containing 70% EtOH for 1 hour at −20° C. After a PBS wash, incorporated EdU was labelled by incubating cells in click reaction buffer (PBS containing 10 μM 6-Carboxyfluorescine-TEG-azide, 10 mM Sodium-L-ascorbate, 2 mM Copper-II-Sulphate) for 30 minutes protected from light. Cells were washed in PBS containing 1% BSA, 5% Tween 20 and then DNA stained in PBS containing 1% BSA and 1 μg/ml DAPI. All washes involve: centrifugation at 400×g for 5 minutes, removal of supernatant from pellet, resuspension in the appropriate buffer, recentrifugation and removal of supernatant from the pellet prior to the next step.\nFluorescence intensity data for 6-Carboxyfluorescine (488_530_30 nm) and DAPI (405_450_50 nm) were acquired for 10,000 single cells on a BD FACS Canto II and analysed using FlowJo software. To further analyse fluorescence intensity, proportional to EdU incorporation, for individual cells, gates were applied on DAPI-EdU biparametric dot plots to select for EdU positive S phase cells using FlowJo. According to the required analysis these gates included either all S phase cells, or only early or late S phase cells. Fluorescence intensity (488_530_30) values per cell were exported and plotted as scatter dot plots using GraphPad prism. For comparisons of mean fluorescence intensity of a cell population across three biological repeat experiments, all fluorescence intensity values were normalised to the maximum fluorescence intensity of the untreated control sample of each respective experiment to account for absolute differences in EdU staining. […]"}, "MDA-MB-468": {"system": "MDA-MB-468", "assay": "Flow cytometry of cell cycle distribution and DNA synthesis (EdU/DAPI)", "conditions": "31 nM BI-1347 with 1.25 μM XL413, 24 hours", "procedure": "(§1) Supplemental FIG. 3: Characteristic phenotypes associated with inhibition of CDC7 and CDK8 are observed in multiple cell lines A panel of different cell lines, including: MDA-MB-468 (a-c); MDA-MB-231 (d-f); and U-2 OS (g-i), were mock treated or treated with 1.25 μM XL413 and/or 31 nM BI-1347BI-1347 for 24 hours. Cells were labelled with EdU for last 30 minutes and DNA synthesis, DNA content and cell cycle distribution were assessed by flow cytometry and analysed using the gating strategy described in FIG. 2c. (b, e and h) distribution of cells in the cell cycle. (c, f and i) Fluorescence intensity, proportional to EdU incorporation, in individual S phase cells. Long and short horizontal black lines indicate the median and the interquartile range, respectively, extending from the 25th to the 75th percentile for ˜3,922 (MDA-MB-468), ˜3,291 (MDA-MB-231), and ˜4,628 (U-2 OS) cells for each condition. Data is from a representative experiment from 3 biological repeats. […]\n(§2) Fluorescence intensity data for 6-Carboxyfluorescine (488_530_30 nm) and DAPI (405_450_50 nm) were acquired for 10,000 single cells on a BD FACS Canto II and analysed using FlowJo software. To further analyse fluorescence intensity, proportional to EdU incorporation, for individual cells, gates were applied on DAPI-EdU biparametric dot plots to select for EdU positive S phase cells using FlowJo. […] Fluorescence intensity (488_530_30) values per cell were exported and plotted as scatter dot plots using GraphPad prism. For comparisons of mean fluorescence intensity of a cell population across three biological repeat experiments, all fluorescence intensity values were normalised to the maximum fluorescence intensity of the untreated control sample of each respective experiment to account for absolute differences in EdU staining. The mean fluorescence intensity values of these cell populations across three biological repeat experiments are expressed as a ratio relative to a control sample and plotted as a scatter dot plot using GraphPad prism."}, "MDA-MB-231": {"system": "MDA-MB-231", "assay": "Flow cytometry of cell cycle distribution and DNA synthesis (EdU/DAPI)", "conditions": "31 nM BI-1347 with 1.25 μM XL413, 24 hours", "procedure": "as §1, §2"}, "U-2 OS": {"system": "U-2 OS", "assay": "Flow cytometry of cell cycle distribution and DNA synthesis (EdU/DAPI)", "conditions": "31 nM BI-1347 with 1.25 μM XL413, 24 hours", "procedure": "as §1, §2"}, "MCF10A cells [2]": {"system": "MCF10A cells", "assay": "Long-term cell proliferation assay, crystal violet staining", "conditions": "31 nM BI-1347 alone, 7 days, compared to controls", "procedure": "(a and b) MCF10A cells were plated at equal low density and then either mock treated or treated with 31 nM BI-1347, in the presence or absence of XL413 at a doses of (a) 1.25 μM or (b) 10 μM over a 7 day period. Representative images of crystal violet-stained cells are shown alongside quantitation of crystal violet intensity normalised to the untreated control.\nBriefly, MCF10A cells were mock-treated or treated in the continued presence of a dual-specificity CDK8/CDK19 inhibitor, BI-1347, in the presence or absence of XL413 at two different concentrations (1.25 μM and 10 μM) for a 7-day period. Relative cell proliferation was estimated by staining cells with crystal violet and measuring staining intensities. […] Importantly the addition of BI-1347 to XL413 caused a further reduction in cell number with staining intensity decreasing by 70% and 95% respectively.\nMCF10A cells were seeded at 4,000 cells per well of a 6 well plate and after 24 hours were treated with inhibitors before being incubated for 7 days at 37° C. with 5% CO2. Media was removed from the cells which were then washed with PBS and air dried before being fixed with 100% methanol for 1 hour. Following removal of methanol the plates were air-dried, stained with crystal violet staining solution (0.2% crystal violet, 25% methanol) for 1 hour at room temperature, washed with ddH2O and air-dried. Plates were scanned using a HP Scanjet 4050, to generate images of crystal violet stained cells, and crystal violet staining intensity was acquired using the Odyssey infrared imaging system and Image Studio software (LI-COR Biosciences)."}, "[3]": {"conditions": "BI-1347 alone at increasing concentrations, 24 hours"}, "[4]": {"conditions": "CDC7 inhibitor alone at increasing concentrations, absence of CDK8/CDK19i, 24 hours"}, "[5]": {"conditions": "CDC7 inhibitor at increasing concentrations together with the CDK8/CDK19 inhibitor (31 nM BI-1347), 24 hours, all doses tested"}}, "data": [{"compound": "CN(C)C(=O)Cn1ccc(-c2ccc(-c3cncc4ccccc34)cc2)c1", "note": "[BI-1347]", "values": [{"measurement": "cell cycle distribution", "setting": "MCF10A cells [1]; [3]", "value": "dose-dependent increase in G1 phase cells with a corresponding decrease in early-mid S phase cells"}, {"measurement": "rate of DNA synthesis in S phase cells", "setting": "MCF10A cells [1]; [3]", "value": "subtle and dose-independent decrease"}, {"measurement": "increase in the potency of the CDC7 inhibitor in replication assays", "setting": "MCF10A cells [1]; BI-1347 in combination with CDC7 inhibitors, decrease in rate of DNA synthesis", "value": "~10", "unit": "fold"}, {"measurement": "potentiation of cell cycle and DNA replication phenotypes imposed by CDC7 inhibition", "setting": "MDA-MB-468", "value": "strong potentiation"}, {"measurement": "potentiation of cell cycle and DNA replication phenotypes imposed by CDC7 inhibition", "setting": "MDA-MB-231", "value": "strong potentiation"}, {"measurement": "potentiation of cell cycle and DNA replication phenotypes imposed by CDC7 inhibition", "setting": "U-2 OS", "value": "strong potentiation"}, {"measurement": "decrease in the relative staining intensity (crystal violet)", "setting": "MCF10A cells [2]", "value": "approximately 30%"}]}, {"compound": "Cc1n[nH]cc1-c1cc2[nH]c([C@@H]3CC4CCN3CC4)nc(=O)c2s1", "note": "[TAK-931]", "values": [{"measurement": "cell cycle distribution", "setting": "MCF10A cells [1]; [4]", "value": "dose-dependent accumulation of mid-late S phase cells"}, {"measurement": "rate of DNA synthesis of S phase cells", "setting": "MCF10A cells [1]; [4]", "value": "corresponding decrease"}, {"measurement": "cell cycle distribution", "setting": "MCF10A cells [1]; [5]", "value": "more pronounced accumulation of cells in mid-late S phase"}, {"measurement": "rate of DNA synthesis", "setting": "MCF10A cells [1]; [5]", "value": "much more profound decrease"}]}]}
